Data taken from patent publication US8293481B2, “Biomarkers for chronic vascular dysfunction” (Mayo Foundation for Medical Education and Research, priority 2006, dated 2012).

Legend:
[1] = tested on: Sprague-Dawley rats, LAD ligation infarct model of CHF; experiment: Left ventricular function by transthoracic echocardiography (fractional shortening) in rat infarct model of CHF; format: in vivo; conditions: 2 weeks post-infarction; captopril 2 g/l in drinking water; uninfarcted 56%, placebo 29%
Source text: (§1) After intubation, rats were ventilated continuously (room air) using a small animal ventilator (Model 683, Harvard Apparatus, Holliston, Mass.). A left lateral thoracotomy incision was made along the 5th intercostal space and after the pericardium was opened, the heart was exteriorized using a retention suture placed at the apex. The left anterior descending coronary artery (LAD) was ligated twice using 6-0 prolene suture (Ethicon, Cornelia, Ga.). After chest closure with running 3-0 vicryl suture (Ethicon), rats were put in a recovery chamber with a heating pad and warming light. The post-operative survival rate reached 80%. […] Rats were fed a standard diet of Teklad rodent feed (Harlan) ad libitum and kept on a 12:12 h light-dark cycle. Rats were sacrificed at designated time intervals of 2 weeks and 4 weeks after surgery. […] Cardiac function was estimated using fractional shortening (FS) obtained from the EDD and ESD in the parasternal long axis view and calculated as FS=((EDD-ESD)/EDD)×100%.

[2] = tested on: aortic smooth muscle strips; experiment: Dose-response relationship to 8-Br-cGMP, relaxation of aortic smooth muscle strips from treated rats; format: in vivo, rat; conditions: post-infarct animals treated with captopril, at both 2 and 4 weeks; P>0.05
Source text: as §1, with “Determination of the dose-response relationship to cGMP: Aortic smooth muscle strips were isolated” for “Cardiac function was estimated using fractional shortening (FS) obtained”, “rats” for “the EDD and ESD”, “uninfarcted control group without treatment” for “parasternal long axis view”, “from both placebo” for “calculated”, “well as captopril treated group at 2 weeks and 4 weeks post-LAD ligation to determine the dose-response relationship to cGMP. […] After the force reached a steady state, the dose-response relationship to 8-Br-cGMP (Calbiochem, San Diego, Calif.) was determined.” for “FS=((EDD-ESD)/EDD)×100%.”

C[C@H](CS)C(=O)N1CCC[C@H]1C(=O)O [Captopril, 1-[(2S)-3-mercapto-2-methylpropionyl]-L-proline]
fractional shortening (FS) [1]: 38% | sensitivity of cGMP-mediated relaxation versus uninfarcted control aorta [2]: not different
